The results in this text go back to patent publication US20250206718A1, “NITROGEN-CONTAINING HETEROCYCLIC DERIVATIVE INHIBITOR, PREPARATION METHOD THEREFOR AND USE THEREOF” (SHANGHAI HANSOH BIOMEDICAL CO., LTD., priority 2022, published 2025).

Usually AUC(0-t) stands for exposure summed from dosing to a finite time, without extrapolation to infinity. A word on the Cmax: it is the highest concentration seen after dosing. Broadly, the half-life is the time needed for the level to fall by half in the phase considered.

Series [1] in a line: Rat pharmacokinetic evaluation test. Format: in vivo. To be noted: Sprague-Dawley (SD), po, SD rats, male, p.o. 5 mg/kg, plasma. The method, then: SD rats were used as test animals to study the pharmacokinetic behavior of the compounds of the present invention in the rat body (plasma) after oral administration at a dose of 5 mg/kg.
2.2 Experimental Animals: 3 SD Rats/Group, Male, from Shanghai Jiesijie Experimental Animal Co., Ltd., Animal Production License Number (SCXK (Shanghai) 2013-0006 No. 311620400001794).
• Oral administration drug preparation: 20% solutol HS15 in 0.5% MC (methylcellulose)
20 g of a Solutol HS15 solid and 0.5 g of a MC solid powder were weighed and dissolved in 80 mL of purified water, and the mixture was vortexed, mixed until uniform, and subjected to ultrasound treatment to obtain a clear solution of 20% solutol HS15 in 0.5% MC.
The example compound was weighed into a 20 mL glass bottle, the solution was added thereto and the mixture was subjected to ultrasound treatment for 10 minutes to obtain a clear solution with a concentration of 0.5 mg/mL.
3 male SD rats were administered p.o. respectively after the 3 male SD rats were fasted overnight; the p.o. dose was 5 mg/kg and the administration volume was 10 mL/kg.
Blood collection: Before and after administration to rats, 0.2 mL of blood was collected from the jugular vein at 0.25, 0.5, 1, 2, 4, 6, 8 and 24 h, and placed in an EDTA-K2 anticoagulation tube, which was centrifuged at 6000 rpm at 4° C. for 6 min to separate plasma which was stored at −80° C.; the rats were fed 4 h after administration.
1) 160 μL of acetonitrile was added to 40 μL of plasma sample for precipitation, mixed and centrifuged at 3500×g for 5 to 20 min.
2) the treated supernatant solution was taken and subjected to LC/MS/MS to analyze the concentrations of the test compounds. LC/MS/MS analysis instrument: AB Sciex API 4000 Qtrap.
• Liquid phase conditions: Shimadzu LC-20AD pump • Chromatographic column: Agilent ZORBAX XDB-C18 (50×2.1 mm, 3.5 μm) mobile phase: liquid A is 0.1% aqueous formic acid solution, liquid B is acetonitrile • Flow rate: 0.4 mL/min • Elution time: 0-4.0 min, the eluent is as follows:
The main pharmacokinetic parameters were calculated using WinNonlin 6.1.

The target of series [2] is Ba/F3 EGFR Del19/T790M/C797S cells (Homo sapiens, UniProt P00533, T790M/C797S, cells depend on it, form not given). Description: Cell proliferation inhibition (Cell Titer-Glo), Ba/F3 EGFR Del19/T790M/C797S. To be noted: 72 hours, CellTiter-Glo, read-out: Ba/F3 EGFR Del19_T790M_C797S IC50. It is filed as cell-based, mouse. The text has this: (§1) Experimental objective: The objective of this test example is to test the inhibitory activity of compounds on the proliferation of different EGFR C797S drug-resistant mutant cell lines Ba/F3 EGFR Del19/T790M/C797S, Ba/F3 EGFR L858R/T790M/C797S, and Ba/F3 EGFR Del19/C797S.
(§2) • Ba/F3 EGFR Del19/T790M/C797S cells were purchased from KYinno Biotechnology Co., Ltd.; • Ba/F3 EGFR Del19/C797S cells were purchased from CoBioer Biosciences Co., Ltd.; • Ba/F3 EGFR L858R/T790M/C797S cells were purchased from CoBioer Biosciences Co., Ltd.; • Cell Titer-Glo was purchased from Promega, with a catalog number of G7573; • RPMI 1640 was purchased from Gibco, with a catalog number of 22400089; • FBS was purchased from Gibco, with a catalog number of 10091148; • cell culture plates were purchased from Corning, with a catalog number of 3610.
(§3) The inhibitory activity of the compound on the proliferation of different EGFR C797S drug-resistant mutant cell lines was detected using the Cell Titer-Glo method. The different cell lines were cultured in RPMI 1640 complete culture medium containing 10% FBS under conditions of 37° C. and 5% CO2, the cells were collected by centrifugation when growing to a certain density, and adjusted to appropriate cell density after counting, the cells were spread on a white 96-well plate at 90 μL/well, and cultured in a 37° C., 5% CO2 incubator overnight, prepared compound solutions of different concentrations were added at 10 μL/well, corresponding solvent controls were set, and all wells were cultured in a 37° C., 5% CO2 incubator for 72 hours, 50 μL of CellTiter-Glo solution was added to each well, shook and mixed evenly, and incubated in the dark for 10 minutes, and a BioTek Synergy H1 microplate reader was used for reading.
(§4) The luminescence signal value was used to calculate the inhibition rate. Graphpad Prism software was used to fit the concentration and inhibition rate to a nonlinear regression curve, so as to obtain the IC50 value, as shown in the Table below for details.

Series [3] concerns the target Ba/F3 EGFR Del19/C797S cells (Homo sapiens, UniProt P00533, C797S, cells depend on it, form not given). Description: Cell proliferation inhibition (Cell Titer-Glo), Ba/F3 EGFR Del19/C797S. To be noted: 72 hours, CellTiter-Glo, read-out: Ba/F3 EGFR Del19/C797S IC50. Format: cell-based, mouse.
From the text: as §1, §2, §3, §4
For orientation: Cellular ATP, detected with luciferase, serves as a proxy for viable cell number.

For series [4], the target named is Ba/F3 EGFR L858R/T790M/C797S cells (Homo sapiens, UniProt P00533, T790M/C797S/L858R, cells depend on it). As to the kind of experiment: Cell proliferation inhibition (Cell Titer-Glo), Ba/F3 EGFR L858R/T790M/C797S. Format: cell-based, mouse. To be noted: 72 hours, CellTiter-Glo, read-out: Ba/F3 EGFR L858R_T790M_C797S IC50.
From the text: as §1, §2, §3, §4

Sequence of Ba/F3 EGFR L858R/T790M/C797S cells (P00533 whole entry T790M/C797S/L858R): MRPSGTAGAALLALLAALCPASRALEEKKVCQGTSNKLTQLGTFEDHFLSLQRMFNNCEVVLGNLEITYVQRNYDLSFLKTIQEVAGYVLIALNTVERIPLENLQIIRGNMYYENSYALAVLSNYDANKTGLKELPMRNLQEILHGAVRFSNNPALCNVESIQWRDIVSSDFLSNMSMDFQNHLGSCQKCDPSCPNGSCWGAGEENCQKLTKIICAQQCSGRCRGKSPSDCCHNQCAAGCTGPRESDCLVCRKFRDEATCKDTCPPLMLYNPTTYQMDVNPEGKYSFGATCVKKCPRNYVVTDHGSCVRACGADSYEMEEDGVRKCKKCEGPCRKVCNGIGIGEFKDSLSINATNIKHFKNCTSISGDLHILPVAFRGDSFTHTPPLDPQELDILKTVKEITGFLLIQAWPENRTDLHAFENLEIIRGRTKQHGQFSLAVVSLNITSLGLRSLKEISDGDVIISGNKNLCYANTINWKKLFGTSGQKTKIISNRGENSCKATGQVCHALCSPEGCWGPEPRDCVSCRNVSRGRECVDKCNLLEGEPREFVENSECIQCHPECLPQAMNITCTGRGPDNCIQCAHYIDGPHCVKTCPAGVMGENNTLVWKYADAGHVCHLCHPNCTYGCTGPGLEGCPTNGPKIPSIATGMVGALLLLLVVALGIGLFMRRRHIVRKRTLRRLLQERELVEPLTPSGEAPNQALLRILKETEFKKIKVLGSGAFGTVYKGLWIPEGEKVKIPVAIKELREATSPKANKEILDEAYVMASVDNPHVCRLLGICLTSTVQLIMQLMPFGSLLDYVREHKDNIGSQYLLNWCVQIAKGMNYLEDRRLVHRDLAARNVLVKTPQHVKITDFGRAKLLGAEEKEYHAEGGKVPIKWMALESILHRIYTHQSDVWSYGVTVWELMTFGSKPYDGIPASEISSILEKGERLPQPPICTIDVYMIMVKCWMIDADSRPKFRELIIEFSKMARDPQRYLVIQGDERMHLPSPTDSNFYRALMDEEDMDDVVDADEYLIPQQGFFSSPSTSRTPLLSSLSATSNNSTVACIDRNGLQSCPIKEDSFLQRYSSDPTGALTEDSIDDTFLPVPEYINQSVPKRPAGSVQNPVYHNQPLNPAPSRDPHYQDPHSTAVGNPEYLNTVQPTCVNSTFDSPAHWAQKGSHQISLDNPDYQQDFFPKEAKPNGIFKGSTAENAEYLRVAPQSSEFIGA
Sequence of Ba/F3 EGFR Del19/T790M/C797S cells (P00533 with tags, fused parts or gaps DEL746-750/T790M/C797S, form open): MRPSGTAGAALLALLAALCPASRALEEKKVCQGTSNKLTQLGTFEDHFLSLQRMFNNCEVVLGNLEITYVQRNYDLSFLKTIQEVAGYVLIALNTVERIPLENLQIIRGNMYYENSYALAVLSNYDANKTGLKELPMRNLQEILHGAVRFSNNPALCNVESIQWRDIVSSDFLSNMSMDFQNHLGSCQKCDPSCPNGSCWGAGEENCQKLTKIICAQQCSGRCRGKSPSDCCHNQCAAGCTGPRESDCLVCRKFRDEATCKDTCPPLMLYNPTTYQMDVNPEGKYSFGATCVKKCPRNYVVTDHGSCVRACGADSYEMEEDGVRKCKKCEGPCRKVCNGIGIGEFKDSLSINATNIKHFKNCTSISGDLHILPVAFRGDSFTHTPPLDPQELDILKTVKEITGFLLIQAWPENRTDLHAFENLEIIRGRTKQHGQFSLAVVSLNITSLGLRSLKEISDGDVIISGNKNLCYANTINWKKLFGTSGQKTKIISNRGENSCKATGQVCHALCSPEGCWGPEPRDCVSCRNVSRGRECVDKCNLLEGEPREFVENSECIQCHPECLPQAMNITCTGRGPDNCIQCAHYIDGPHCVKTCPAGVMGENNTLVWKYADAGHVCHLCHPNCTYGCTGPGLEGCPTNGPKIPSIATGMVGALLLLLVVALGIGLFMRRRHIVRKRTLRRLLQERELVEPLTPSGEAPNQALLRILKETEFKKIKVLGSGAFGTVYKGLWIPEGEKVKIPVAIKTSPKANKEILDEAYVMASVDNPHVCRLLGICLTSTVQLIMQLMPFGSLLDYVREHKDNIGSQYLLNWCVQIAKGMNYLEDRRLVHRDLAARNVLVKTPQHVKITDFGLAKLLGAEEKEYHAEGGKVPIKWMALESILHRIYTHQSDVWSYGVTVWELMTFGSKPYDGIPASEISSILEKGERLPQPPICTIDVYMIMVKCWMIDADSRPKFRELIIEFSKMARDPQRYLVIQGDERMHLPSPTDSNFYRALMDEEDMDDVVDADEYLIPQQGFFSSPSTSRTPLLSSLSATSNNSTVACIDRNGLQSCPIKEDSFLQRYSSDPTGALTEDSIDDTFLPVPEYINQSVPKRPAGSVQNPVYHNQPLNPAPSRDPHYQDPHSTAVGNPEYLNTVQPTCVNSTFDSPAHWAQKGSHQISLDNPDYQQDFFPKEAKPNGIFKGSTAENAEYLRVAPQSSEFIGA
Sequence of Ba/F3 EGFR Del19/C797S cells (P00533 with tags, fused parts or gaps DEL746-750/C797S, form open): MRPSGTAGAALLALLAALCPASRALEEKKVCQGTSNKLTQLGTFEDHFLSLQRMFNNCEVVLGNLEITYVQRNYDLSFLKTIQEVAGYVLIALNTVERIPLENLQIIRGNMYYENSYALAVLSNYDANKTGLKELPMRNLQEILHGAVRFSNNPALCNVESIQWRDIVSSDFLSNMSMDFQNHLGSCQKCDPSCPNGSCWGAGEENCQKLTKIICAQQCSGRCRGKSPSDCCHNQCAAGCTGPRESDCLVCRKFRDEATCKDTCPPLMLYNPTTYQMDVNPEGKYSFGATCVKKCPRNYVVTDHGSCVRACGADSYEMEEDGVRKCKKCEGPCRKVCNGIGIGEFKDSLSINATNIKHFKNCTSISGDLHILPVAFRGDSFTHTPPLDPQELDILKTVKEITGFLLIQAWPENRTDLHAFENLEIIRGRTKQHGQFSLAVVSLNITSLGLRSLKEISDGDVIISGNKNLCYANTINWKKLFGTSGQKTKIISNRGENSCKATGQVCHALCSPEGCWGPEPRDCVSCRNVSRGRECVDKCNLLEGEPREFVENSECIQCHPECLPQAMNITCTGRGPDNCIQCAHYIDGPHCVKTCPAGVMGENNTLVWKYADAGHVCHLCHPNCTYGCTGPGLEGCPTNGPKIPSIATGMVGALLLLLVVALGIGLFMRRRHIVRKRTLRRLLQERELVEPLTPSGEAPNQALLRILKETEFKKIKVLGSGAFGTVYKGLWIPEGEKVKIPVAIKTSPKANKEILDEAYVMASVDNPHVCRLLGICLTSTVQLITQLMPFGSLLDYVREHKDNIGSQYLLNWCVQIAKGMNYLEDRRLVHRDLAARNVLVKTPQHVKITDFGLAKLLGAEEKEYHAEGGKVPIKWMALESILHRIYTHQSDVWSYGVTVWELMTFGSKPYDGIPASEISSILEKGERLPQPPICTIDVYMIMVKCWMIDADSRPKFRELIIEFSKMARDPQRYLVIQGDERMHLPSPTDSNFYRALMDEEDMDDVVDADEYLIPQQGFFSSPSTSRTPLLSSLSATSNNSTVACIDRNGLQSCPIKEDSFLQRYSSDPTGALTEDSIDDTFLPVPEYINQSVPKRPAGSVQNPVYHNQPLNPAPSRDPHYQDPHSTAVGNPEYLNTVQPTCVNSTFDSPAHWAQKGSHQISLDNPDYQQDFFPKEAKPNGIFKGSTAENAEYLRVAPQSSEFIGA

In series [1], `Cc1nn(C)cc1-c1nccc(Nc2cc3c(C(C)C)ccc(N4C[C@H](CS(C)(=O)=O)[C@H]4C)c3cn2)n1` [Example 1, N-(2-(1,3-dimethyl-1H-pyrazolyl-4-yl)pyrimidin-4-yl)-5-isopropyl-8-((2R,3S)-2-methyl-3-((methanesulfonyl)methyl)azabut-1-yl)isoquinolin-3-amine] gave an AUC(0-t) of 1410 ng·h/mL, a Cmax of 287 ng/mL and a half-life of 2.7 h. Also, the GI50 in series [2] turned out to be 4.5 nM. In addition, the GI50 in series [3] is 12 nM.

Regarding `[2H]C([2H])([2H])n1cc(-c2nccc(Nc3cc4c(C(C)C)ccc(N5C[C@H](CS(C)(=O)=O)[C@H]5C)c4cn3)n2)c(C)n1` [Example 2, 5-isopropyl-N-(2-(3-methyl-1-(methyl-d3)-1H-pyrazol-4-yl)pyrimidin-4-yl)-8-((2R,3S)-2-methyl-3-((methylsulfonyl)methyl)azetidin-1-yl)isoquinolin-3-amine], the GI50 in series [2] was 6.2 nM; in series [3], 13 nM.

For the compound `[2H]C([2H])([2H])c1nn(C([2H])([2H])[2H])cc1-c1nccc(Nc2cc3c(C(C)C)ccc(N4C[C@H](CS(C)(=O)=O)[C@H]4C)c3cn2)n1` [Example 4, N-(2-(1,3-bis(methyl-d3)-1H-pyrazol-4-yl)pyrimidin-4-yl)-5-isopropyl-8-((2R,3S)-2-methyl-3-((methylsulfonyl)methyl)azabut-1-yl)isoquinolin-3-amine], the GI50 in series [2] worked out at 7.7 nM; in series [3] it was 20 nM.

Regarding `[2H]C([2H])([2H])n1cc(-c2nccc(Nc3cc4c(C(C)C)ccc(N5C[C@H](CS(C)(=O)=O)[C@H]5C)c4cn3)n2)c(Cl)n1` [Example 6, N-(2-(3-chloro-1-(methyl-d3)-1H-pyrazol-4-yl)pyrimidin-4-yl)-5-isopropyl-8-((2R,3S)-2-methyl-3-((methylsulfonyl)methyl)azetidin-1-yl)isoquinolin-3-amine], the values for the GI50 in series [2], in series [3] and in series [4] were 5.1 nM, 5.1 nM and 13 nM, respectively.

Turning to `CC(C)c1ccc(N2CC(NS(C)(=O)=O)C2)c2cnc(Nc3ccnc(-c4cn(C)nc4Cl)n3)cc12` [Example 44, N-(1-(3-((2-(3-chloro-1-methyl-1H-pyrazol-4-yl)pyrimidin-4-yl)amino)-5-isopropylisoquinolin-8-yl)azetidin-3-yl)methanesulfonamide], the GI50 in series [2] came out at 10 nM; in series [3], 8.4 nM.

As to `CC(C)c1ccc(N2CC(N(C)S(C)(=O)=O)C2)c2cnc(Nc3ccnc(-c4cn(C)nc4Cl)n3)cc12` [Example 67, N-(1-(3-((2-(3-chloro-1-methyl-1H-pyrazol-4-yl)pyrimidin-4-yl)amino)-5-isopropylisoquinolin-8-yl)azetidin-3-yl)-N-methyl methanesulfonamide], in series [1], the AUC(0-t) worked out at 2170 ng·h/mL, the Cmax is 186 ng/mL and the half-life was 2.7 h. Besides, the GI50 in series [2] came out at 4 nM. Also, the GI50 in series [3] was 3.2 nM.

On to `COC(C)Cn1cc(-c2nccc(Nc3cc4c(C(C)C)ccc(N5C[C@H](CS(C)(=O)=O)[C@H]5C)c4cn3)n2)c(Cl)n1` (stereo partly drawn) [Example 116A, N-(2-(3-chloro-1-(2-methoxypropyl)-1H-pyrazol-4-yl)pyrimidin-4-yl)-5-isopropyl-8-((2R,3S)-2-methyl-3-((methanesulfonyl)methyl)azetidin-1-yl)isoquinolin-3-amine], for which the GI50 in series [2] amounted to 7.6 nM; in series [3] it was 33 nM.

Take `CC(C)c1c(F)cc(N2C[C@H](CS(C)(=O)=O)[C@H]2C)c2cnc(Nc3ccnc(-c4cn(C)nc4Cl)n3)cc12` [Example 120, N-(2-(3-chloro-1-methyl-1H-pyrazol-4-yl)pyrimidin-4-yl)-6-fluoro-5-isopropyl-8-((2R,3S)-2-methyl-3-((methanesulfonyl)methyl)azetidin-1-yl)isoquinolin-3-amine]: the GI50 in series [2] worked out at 7.1 nM; in series [3] it was 11 nM; in series [4] it was 14 nM.

Take `CC(C)c1c(F)cc(N2C[C@H](N(C)S(C)(=O)=O)[C@H]2C)c2cnc(Nc3ccnc(-c4cn(C)nc4Cl)n3)cc12` [Example 121, N-((2R,3S)-1-(3-((2-(3-chloro-1-methyl-1H-pyrazol-4-yl)pyrimidin-4-yl)amino)-6-fluoro-5-isopropylisoquinolin-8-yl)-2-methylazetidin-3-yl)-N-methyl methanesulfonamide]: the GI50 in series [2] is 4.5 nM; in series [3] it was 6.2 nM; in series [4], 15 nM.

In the case of `Cc1nn(C)cc1-c1nccc(Nc2cc3c(C(C)C)c(F)cc(N4C[C@H](CS(C)(=O)=O)[C@H]4C)c3cn2)n1` [Example 125, N-(2-(1,3-dimethyl-1H-pyrazol-4-yl)pyrimidin-4-yl)-6-fluoro-5-isopropyl-8-((2R,3S)-2-methyl-3-((methanesulfonyl)methyl)azetidin-1-yl)isoquinolin-3-amine], the GI50 in series [2] amounted to 6.8 nM; in series [3], 18 nM.

Regarding `Cc1nn(C)cc1-c1nccc(Nc2cc3c(C(C)C)c(F)cc(N4C[C@H](N(C)S(C)(=O)=O)[C@H]4C)c3cn2)n1` [Example 127, N-((2R,3S)-1-(3-((2-(1,3-dimethyl-1H-pyrazol-4-yl)pyrimidin-4-yl)amino)-6-fluoro-5-isopropylisoquinolin-8-yl)-2-methylazetidin-3-yl)-N-methyl methanesulfonamide], the results for the GI50 in series [2] and in series [3] were 4.5 nM and 7.8 nM, respectively.

Turning to `CC(C)c1cnc(N2CC(N(C)S(C)(=O)=O)C2)c2cnc(Nc3ccnc(-c4cn(C)nc4Cl)n3)cc12` [Example 130, N-(1-(6-((2-(3-chloro-1-methyl-1H-pyrazol-4-yl)pyrimidin-4-yl)amino)-4-isopropyl-2,7-diazanaphthalen-1-yl)azetidin-3-yl)-N-methyl methanesulfonamide], the GI50 is 8.1 nM in series [2] and 5.9 nM in series [3].

As for `CC(C)c1ccc(N2C[C@H](CS(C)(=O)=O)[C@H]2C)c2cnc(Nc3ccnc(-c4cn(CC(O)CF)nc4Cl)n3)cc12` (stereo partly drawn) [Example 172, 1-(3-chloro-4-(4-((5-isopropyl-8-((2R,3S)-2-methyl-3-((methanesulfonyl)methyl)azetidin-1-yl)isoquinolin-3-yl)amino)pyrimidin-2-yl)-1H-pyrazol-1-yl)-3-fluoropropan-2-ol], the values for the GI50 in series [2] and in series [3] were 5 nM and 33 nM, respectively.

Regarding `CC(C)c1ccc(N2C[C@H](CS(C)(=O)=O)[C@H]2C)c2cnc(Nc3ccnc(-c4cn(C[C@@H]5CCO5)nc4Cl)n3)cc12` [Example 182, N-(2-(3-chloro-1-(((S)-oxetan-2-yl)methyl)-1H-pyrazol-4-yl)pyrimidin-4-yl)-5-isopropyl-8-((2R,3S)-2-methyl-3-((methanesulfonyl)methyl)azetidin-1-yl)isoquinolin-3-amine], the GI50 came to 4.4 nM in series [2] and 10 nM in series [4].
